Source: patent publication US10759839B2, “Cell-penetrating peptide” (NEOREGEN BIOTECH, priority 2016, dated 2020)
Entries after “also recorded” stand apart in the source; their conditions may differ. Where no end group is shown, it is not given here.

Key:
NIH3T3 fibroblast = experiment: Cell penetration efficiency of FITC-peptides, heparin and trypsin washing, FACS (FIG. 6); type: cell-based; conditions: 1 μM
From the text: FIG. 6 is a graph showing results of comparing the cell penetration efficiencies of Ara-27, ara-20, R8-Ara-19 and Ara-8 cell-penetrating peptides in a NIH3T3 fibroblast.
(§1) In order to confirm the cell penetration efficiency of each cell-penetrating peptide, fluorescein isothiocyanate (FITC, fluorescent material), which fluoresces each peptide, was adhered to each peptide, then penetration efficiencies thereof were examined.
When measuring the cell penetration efficiency, in order to remove each cell-penetrating peptide which may be adhered to the cell membrane surface, a Heparin & Trypsin washing method used in the Kaplan group was applied thereto [Kaplan I M, Wadia J S, Dowdy S F (2005) Cationic TAT peptide transduction domain enters cells by macropinocytosis. J Controlled release 102: 247-253). In summary, in the experiments to be described below, each cell-penetrating peptide was put into a cell growth medium at a concentration of 1 μM, incubated for 30 minutes, and then the cells were washed 3 times with Heparin, followed by separating the cells with trypsin to perform a FACS analysis.
Next, the cell penetration efficiencies of Ara-27 and the cell-penetrating peptides including amino acid sequences of SEQ ID NO: 1 (Ara-20), SEQ ID NO: 3 (R8-Ara-19), and SEQ ID NO: 11 (Ara-8) of the examples in a NIH3T3 fibroblast were compared.

[1] = system: mesenchymal stem cell (MSC); experiment: Cell penetration of FITC-labelled peptide by concentration, FACS fluorescence intensity (FIG. 1); type: cell-based, human; conditions: 1 hour
From the text: FIG. 1 is a graph showing that a cell membrane penetration efficiency of Ara-27 cell-penetrating peptide is increased in proportion to a concentration in mesenchymal stem cell (MSC) derived from a human body. In the graph, a Y axis represents a fluorescence intensity, which is an index indicating an amount of introduced peptides per unit cell.
as §1
When measuring the cell penetration efficiency, in order to remove each cell-penetrating peptide which may be adhered to the cell membrane surface, a Heparin & Trypsin washing method used in the Kaplan group was applied thereto [Kaplan I M, Wadia J S, Dowdy S F (2005) Cationic TAT peptide transduction domain enters cells by macropinocytosis. J Controlled release 102: 247-253). […]
In the mesenchymal stem cell (MSC), an amount of the cell-penetrating peptide (Ara-27) including an amino acid sequence of SEQ ID NO: 2 into the cell was determined for each concentration.

[2] = system: Human mesenchymal stem cells (human MSCs); experiment: Confocal microscopy of intracellular localisation with membrane marker FM-64 (FIG. 3); type: cell-based
From the text: Further, in order to determine whether the Ara-27 cell-penetrating peptide is actually present in intracellular nuclei or cytoplasm, the Ara-27 peptide was fluorescently treated, and then analyzed using a confocal microscope. Human mesenchymal stem cells (human MSCs) were placed in a DMEM cell culture medium containing 10% FBS in a 6-well plate. […] Next, a membrane marker (FM-64) was used to examine whether the peptides are actually present inside the cell membrane. The cells were removed with trypsin to allow reagents to be inserted into the cell membrane, and the reagents were treated to perform the analysis. At this time, it can be confirmed that most of peptides were present in cytoplasmic parts inside the cell membranes, and some of the peptides were also present in the nucleus (FIG. 3).

human-derived MSCs = experiment: Fluorescence microscopy of peptide entry into cells (FIG. 2); type: cell-based; conditions: 1 μM, 30 minutes, medium containing 10% serum, heparin washing, trypsin
Method: An experiment was conducted in a medium containing 10% serum, and after treatment for 30 minutes at a concentration of 1 μM, fluorescent peptides adhered to the cell surface were removed using a heparin washing method, and then the cell was separated therefrom by treatment with trypsin. FIG. 2 is photographs of cells taken by the fluorescence microscope after separation.

U2OS cancer cell line = experiment: Anti-cancer effect of purified ICT-53 peptide (FIGS. 9 and 10); type: cell-based; conditions: for each concentration
NIH3T3 cell line = experiment: Cell penetration efficiency of FITC-labelled p53C, Tat-Ara-19 and ICT-53 (FIG. 7); type: cell-based; conditions: 1 μM, 1 hour
Method: FIG. 7 is a graph showing results of comparing the cell penetration efficiencies of p53C, Tat-ara-19 and ICT-53 peptides.
A p53C peptide having 22 amino acid sequences and Tat-Ara-19 peptide, as well as the ICT-53 peptide, in which the p53C peptide is fused to the Tat-Ara-19 peptide, were synthesized, then fluorescein isothiocyanate (FITC, fluorescent material) was adhered to the C-terminus thereof so as to fluoresce. These peptides were used to examine the cell penetration efficiency for 1 hour at a concentration of 1 μM in a NIH3T3 cell line. […] In this experiment, the penetration efficiency in a situation including serum was also examined.

Ara-27: cell-penetrating peptide including an amino acid sequence of SEQ ID NO: 2, Arabidopsis thaliana-derived (RNQRKTVRCFRCRQAGHWISDCRLKSK; Ara-27)
efficiency of penetrance into the cell (NIH3T3 fibroblast; within 30 minutes, environment including serum): ≥ 90%
amount of the peptide introduced per unit cell (fluorescence intensity) ([1]; for each concentration): increased in proportion to the concentration
location of the peptide in the cell ([2]; 2 μM, DMEM containing 10% FBS): most of the Ara-27 peptides were present in the cytoplasm
persistence of the peptide in the cell ([2]; 5 μM, 18 hours after penetration): stably exist therein
location of the peptide in the cell ([2]; 5 μM, 18 hours after penetration, membrane marker): not only in the cytoplasm but also in the nucleus
peptides that entered the cells, seen by fluorescence microscope (human-derived MSCs): found across all the cells; also recorded: high fluorescence intensity

RKKRRQRRCFRCRQAGHWISDCRLKSKGSRAHSSHLKSKKGQSTSRHKK (cysteines drawn unpaired) [ICT-53]
anti-cancer effect, dependence on concentration (U2OS cancer cell line): in proportion to the concentration
cell penetration efficiency (in words) (NIH3T3 cell line): high efficiency

Tat-Ara-19: cell-penetrating peptide including an amino acid sequence of SEQ ID NO: 4 (RKKRRQRRCFRCRQAGHWISDCRLKSK; Tat-Ara-19)
cell penetration efficiency (in words) (NIH3T3 cell line): high efficiency

Tat-PTD: Tat-PTD (SEQ ID NO: 12), a well-known cell-penetrating peptide, used as control group (RKKRRQRR; Tat-PTD) [reference compound]
cell penetration efficiency (in words) (NIH3T3 fibroblast; NIH3T3 fibroblast, 30 minutes): very low level
amount of the peptide introduced per unit cell (fluorescence intensity) ([1]; even at 5 μM): remarkably low
peptides that entered the cells, seen by fluorescence microscope (human-derived MSCs): very rarely found

p53C: p53C peptide (SEQ ID NO: 5), peptide of a C-terminal region of a p53 protein, 22 amino acids (GSRAHSSHLKSKKGQSTSRHKK; p53C) [reference compound]
cell penetration efficiency (in words) (NIH3T3 cell line): did not penetrate into the cell
